Structures are written as SMILES. Where two headings read alike, the source gives them in different places.

Series [1] deals with Puccinia recondita. The series can be described thus: Puccinia test (wheat) / protective. In kind it is in vivo. Particulars: 240 h, read-out: efficacy. The procedure:
(§1) To produce a suitable preparation of active compound, 1 part by weight of active compound is mixed with the stated amounts of solvent and emulsifier, and the concentrate is diluted with water to the desired concentration.
To test for protective activity, young plants are sprayed with the active compound preparation at the stated application rate. After the spray coating has dried on, the plants are sprayed with a conidia suspension of Puccinia recondita. The plants remain in an incubation cabin at 20° C. and 100% relative atmospheric humidity for 48 hours.
The plants are then placed in a greenhouse at a temperature of about 20° C. and a relative atmospheric humidity of 80% to promote the development of rust pustules.
(§2) Evaluation is carried out 10 days after the inoculation. 0% means an efficacy which corresponds to that of the control, whereas an efficacy of 100% means that no infection is observed.

Series [2] deals with Podosphaera leucotricha. The series can be described thus: Podosphaera test (apple) / protective. In kind it is in vivo. As to conditions: 240 h, read-out: efficacy. The procedure: as §1
To test for protective activity, young plants are sprayed with the active compound preparation at the stated application rate. After the spray coating has dried on, the plants are inoculated with an aqueous spore suspension of the apple mildew pathogen Podosphaera leucotricha. The plants are then placed in a greenhouse at about 23° C. and a relative atmospheric humidity of about 70%.
as §2

Series [3] deals with Uromyces appendiculatus. Kind of series: Uromyces test (bean) / protective. In kind it is in vivo. As to conditions: 240 h, read-out: efficacy. On the procedure: as §1
To test for protective activity, young plants are sprayed with the active compound preparation at the stated application rate. After the spray coating has dried on, the plants are inoculated with an aqueous spore suspension of the bean rust pathogen Uromyces appendiculatus and then remain in an incubation cabin at about 20° C. and 100% relative atmospheric humidity for 1 day.
The plants are then placed in a greenhouse at about 21° C. and a relative atmospheric humidity of about 90%.
as §2

In series [4] the test system is Botrytis cinerea. The series can be described thus: Botrytis test (bean) / protective. Particulars: 48 h, read-out: efficacy. In kind it is in vivo. On the procedure:
as §1
To test for protective activity, young plants are sprayed with the active compound preparation at the stated application rate. After the spray coating has dried on, 2 small pieces of agar overgrown with Botrytis cinerea are placed on each leaf. The inoculated plants are then placed in a darkened chamber at about 20° C. and 100% relative atmospheric humidity.
Two days after the inoculation the size of the infected spots on the leaves is evaluated. 0% means an efficacy which corresponds to that of the control, whereas an efficacy of 100% means that no infection is observed.

The subject of series [5] is Sphaerotheca fuliginea. The series can be described thus: Sphaerotheca test (cucumber) / protective. In kind it is in vivo. Particulars: Podosphaera fuliginea, 168 h, read-out: efficacy. The procedure:
as §1
To test for protective activity, young plants are sprayed with the active compound preparation at the stated application rate. After the spray coating has dried, the plants are inoculated with an aqueous spore suspension of Sphaerotheca fuliginea. The plants are then placed in a greenhouse at about 23° C. and a relative atmospheric humidity of about 70%.
Evaluation is carried out 7 days after the inoculation. 0% means an efficacy which corresponds to that of the control, whereas an efficacy of 100% means that no infection is observed.

Series [6] can be described thus: logP (acidic, pH 2.3).
Where [7] appears, read: wheat plants, protective spray, active compound concentration 1000 ppm, evaluation 10 days after inoculation.
[8] abbreviates: apple plants, protective spray, active compound concentration 100 ppm, evaluation 10 days after inoculation.
The mark [9] stands for this setting: bean plants, protective spray, active compound concentration 10 ppm, evaluation 10 days after inoculation.
Where [10] appears, read: bean plants, protective spray, active compound concentration 250 ppm, evaluation two days after inoculation.
Setting [11] is: cucumber plants, protective spray, active compound concentration 100 ppm, evaluation 7 days after inoculation.

Regarding `CCN(C)C=Nc1cc(C)c(Oc2ccc(C3CCCC3)cc2)cc1C` [Compound 32, N′-[4-(4-cyclopentylphenoxy)-2,5-dimethylphenyl]-N-ethyl-N-methylimidoformamide], in series [1] (setting [7]), the pest or weed control at 1000 ppm was at least 70%. The pest or weed control at 100 ppm in series [2] (setting [8]) and in series [5] (setting [11]) was at least 70% each time. In series [3] (setting [9]), the pest or weed control at 10 ppm is at least 70%. Also, in series [4] (setting [10]), the pest or weed control at 250 ppm was at least 70%. The molecule further gave a logP in series [6] (pH 2.3, logP acidic, acidic) of 2.87.
With `CCN(C)C=Nc1cc(C)c(Oc2ccc(-c3ccc(F)cc3)cc2)cc1C` [Compound 11], in series [1], the pest or weed control at 1000 ppm is at least 70%. Besides, the pest or weed control at 100 ppm in series [2] and in series [5] was at least 70% in each case. In series [3], the pest or weed control at 10 ppm is at least 70%. Also, the pest or weed control at 250 ppm in series [4] is at least 70%. This molecule also registered a logP in series [6] (pH 2.3) of 2.69.
As for `CCN(C)C=Nc1cc(C)c(Oc2ccc(-c3ccccc3Cl)cc2)cc1C` [Compound 27, N′-{4-[(2′-chlorobiphenyl-4-yl)oxy]-2,5-dimethylphenyl}-N-ethyl-N-methylimidoformamide], the pest or weed control at 1000 ppm in series [1] (setting [7]) is at least 70%. The pest or weed control at 100 ppm in series [2] (setting [8]) and in series [5] (setting [11]) was at least 70% in each case. Further, in series [3] (setting [9]), the pest or weed control at 10 ppm was at least 70%. Also, the pest or weed control at 250 ppm in series [4] (setting [10]) was at least 70%. In series [6] (pH 2.3, logP acidic, acidic), the logP amounted to 2.67.
Consider `Cc1cc(Oc2ccc(-c3ccccc3C(C)C)cc2)c(C)cc1/N=C/N1CCCCC1` [Compound 25], for which the pest or weed control at 100 ppm in series [2] and in series [5] was at least 70% in each case. Further, the pest or weed control at 10 ppm in series [3] is at least 70%. The pest or weed control at 250 ppm in series [4] is at least 70%. This molecule returned a logP in series [6] (pH 2.3) of 2.46.
For `Cc1cc(Oc2ccc(C3CCCC3)cc2)c(C)cc1/N=C/N1CCCCC1` [Compound 35, 4-(4-cyclopentylphenoxy)-2,5-dimethyl-N-[(1E)-piperidin-1-ylmethylene]aniline], in series [1] (setting [7]), the pest or weed control at 1000 ppm was at least 70%. Further, the pest or weed control at 10 ppm in series [3] (setting [9]) was at least 70%. Moreover, in series [4] (setting [10]), the pest or weed control at 250 ppm is at least 70%. For the same molecule, the pest or weed control at 100 ppm in series [5] (setting [11]) was at least 70%. The molecule also registered a log partition coefficient (logP) in series [6] (pH 2.3, logP acidic, acidic) of 3.13.
With `CCN(C)C=Nc1cc(C)c(Oc2ccc(-c3ccccc3OC)cc2)cc1C` [Compound 19], the pest or weed control at 1000 ppm in series [1] was at least 70%. Besides, the pest or weed control at 10 ppm in series [3] is at least 70%. Also, the pest or weed control at 250 ppm in series [4] was at least 70%. The pest or weed control at 100 ppm in series [5] was at least 70%. In series [6] (pH 2.3), this molecule gave a logP of 2.49.
`Cc1cc(Oc2ccc(C3CCCC3)cc2)c(C)cc1N=CN(C)C(C)C` [Compound 33, N′-[4-(4-cyclopentylphenoxy)-2,5-dimethylphenyl]-N-isopropyl-N-methylimidoformamide]: the pest or weed control at 1000 ppm in series [1] (setting [7]) was at least 70%. For the same molecule, the pest or weed control at 100 ppm in series [2] (setting [8]) and in series [5] (setting [11]) was at least 70% each time. The pest or weed control at 10 ppm in series [3] (setting [9]) is at least 70%. In series [4] (setting [10]), the pest or weed control at 250 ppm was at least 70%. The same molecule yielded a logP in series [6] (pH 2.3, logP acidic, acidic) of 3.
With `CCN(C)C=Nc1cc(C)c(Oc2ccc(-c3ccc(SC)cc3)cc2)cc1C` [Compound 6, N′-(2,5-dimethyl-4-{[4′-(methylthio)biphenyl-4-yl]oxy}phenyl)-N-ethyl-N-methylimidoformamide], the pest or weed control at 1000 ppm in series [1] (setting [7]) is at least 70%. Further, the pest or weed control at 100 ppm in series [2] (setting [8]) and in series [5] (setting [11]) was at least 70% in each case. Further, the pest or weed control at 10 ppm in series [3] (setting [9]) is at least 70%. The pest or weed control at 250 ppm in series [4] (setting [10]) was at least 70%. The molecule also yielded a logP in series [6] (pH 2.3, logP acidic, acidic) of 2.67.
With `CCN(C)C=Nc1cc(C)c(Oc2ccc(-c3ccccc3F)cc2)cc1C` [Compound 17], in series [1], the pest or weed control at 1000 ppm is at least 70%. Moreover, the pest or weed control at 100 ppm in series [2] and in series [5] was at least 70% in each case. In addition, in series [3], the pest or weed control at 10 ppm is at least 70%. For the same molecule, the pest or weed control at 250 ppm in series [4] is at least 70%. Further, the logP in series [6] (pH 2.3) was determined as 2.56.
In the case of `CCN(C)C=Nc1cc(C)c(Oc2ccc(-c3ccc(C(C)=O)cc3)cc2)cc1C` [Compound 8, N′-{4-[(4′-acetylbiphenyl-4-yl)oxy]-2,5-dimethylphenyl}-N-ethyl-N-methylimidoformamide], the pest or weed control at 100 ppm in series [2] (setting [8]) and in series [5] (setting [11]) was at least 70% throughout. In series [3] (setting [9]), the pest or weed control at 10 ppm was at least 70%. For the same molecule, in series [6] (pH 2.3, logP acidic, acidic), the logP was 2.32.
As to `CCN(C)C=Nc1cc(C)c(Oc2ccc(-c3ccc(OC)cc3)cc2)cc1C` [Compound 5, N-ethyl-N′-{4-[(4′-methoxybiphenyl-4-yl)oxy]-2,5-dimethylphenyl}-N-methylimidoformamide], in series [1] (setting [7]), the pest or weed control at 1000 ppm is at least 70%. Besides, the pest or weed control at 100 ppm in series [2] (setting [8]) and in series [5] (setting [11]) was at least 70% throughout. For the same molecule, the pest or weed control at 10 ppm in series [3] (setting [9]) was at least 70%. Also, the pest or weed control at 250 ppm in series [4] (setting [10]) was at least 70%. The logP stood at 2.57 in series [6] (pH 2.3, log P (pH 2.3), pH 2.3) and 2.47 in series [6] (pH 2.3, logP acidic, acidic).
Consider `Cc1cc(Oc2ccc(-c3ccccc3C(F)(F)F)cc2)c(C)cc1/N=C/N1CCCCC1` [Compound 20], for which the pest or weed control at 1000 ppm in series [1] is at least 70%. Also, the pest or weed control at 100 ppm in series [2] and in series [5] was at least 70% throughout. Moreover, the pest or weed control at 250 ppm in series [4] was at least 70%. The logP in series [6] (pH 2.3) stood at 2.93.
`CCN(C)C=Nc1cc(C)c(Oc2ccc(-c3ccc(Cl)cc3)cc2)cc1C` [Compound 1, N′-{4-[(4′-chlorobiphenyl-4-yl)oxy]-2,5-dimethylphenyl}-N-ethyl-N-methylimidoformamide]: the pest or weed control at 1000 ppm in series [1] (setting [7]) was at least 70%. The pest or weed control at 100 ppm in series [2] (setting [8]) and in series [5] (setting [11]) was at least 70% each time. For the same molecule, in series [3] (setting [9]), the pest or weed control at 10 ppm was at least 70%. Also, in series [4] (setting [10]), the pest or weed control at 250 ppm was at least 70%. Also, in series [6] (pH 2.3, logP acidic, acidic), the logP was 2.95.
Turning to `Cc1cc(Oc2ccc(-c3ccccc3Cl)cc2)c(C)cc1/N=C/N1CCCCC1` [Compound 26], in series [1], the pest or weed control at 1000 ppm was at least 70%. For the same molecule, the pest or weed control at 100 ppm in series [2] and in series [5] was at least 70% each time. Further, in series [4], the pest or weed control at 250 ppm was at least 70%. The molecule also gave a logP in series [6] (pH 2.3) of 2.77.
Consider `CCN(C)C=Nc1cc(C)c(Oc2ccc(-c3ccc(S(=O)(=O)CC)cc3)cc2)cc1C` [Compound 2, N-ethyl-N′-(4-{[4′-(ethylsulfonyl)biphenyl-4-yl]oxy}-2,5-dimethylphenyl)-N-methylimidoformamide], for which the pest or weed control at 1000 ppm in series [1] (setting [7]) was at least 70%. The pest or weed control at 100 ppm in series [2] (setting [8]) and in series [5] (setting [11]) was at least 70% throughout. For the same molecule, the pest or weed control at 10 ppm in series [3] (setting [9]) was at least 70%. In addition, in series [6] (pH 2.3, logP acidic, acidic), the lipophilicity (logP) was 2.06.
Take `CCN(C)C=Nc1cc(C)c(Oc2ccc(-c3ccc(C(F)(F)F)cc3)cc2)cc1C` [Compound 3, N′-(2,5-dimethyl-4-{[4′-(trifluoromethyl)biphenyl-4-yl]oxy}phenyl)-N-ethyl-N-methylimidoformamide]: the pest or weed control at 1000 ppm in series [1] (setting [7]) is at least 70%. Moreover, the pest or weed control at 100 ppm in series [2] (setting [8]) and in series [5] (setting [11]) was at least 70% in each case. For the same molecule, in series [4] (setting [10]), the pest or weed control at 250 ppm is at least 70%. In addition, the logP in series [6] (pH 2.3, logP acidic, acidic) was found to be 2.94.
For the molecule `CCc1ccccc1-c1ccc(Oc2cc(C)c(/N=C/N3CCCCC3)cc2C)cc1` [Compound 23], in series [1], the pest or weed control at 1000 ppm is at least 70%. Further, the pest or weed control at 100 ppm in series [2] and in series [5] was at least 70% in each case. In series [4], the pest or weed control at 250 ppm was at least 70%. Also, the logP in series [6] (pH 2.3) stood at 3.34.
On to `Cc1cc(Oc2ccc(-c3ccccc3C)cc2)c(C)cc1/N=C/N1CCCCC1` [Compound 24], for which the pest or weed control at 1000 ppm in series [1] is at least 70%. For the same molecule, the pest or weed control at 100 ppm in series [2] and in series [5] was at least 70% in each case. Besides, the pest or weed control at 250 ppm in series [4] is at least 70%. In series [6] (pH 2.3), this molecule returned a log partition coefficient (logP) of 3.22.

The values are drawn from patent US8299302B2 (priority 2007, dated 2012).
